Assay results reported in US5116839A, “Use of isoxazolin-3-one derivatives as antidepressants” (Sankyo Company, Limited, priority 1989, dated 1992).
Counter-ions that a name gives are not always drawn.

What was measured:
reserpine-induced ptosis = assay: Effect on reserpine-induced ptosis in the mouse; assay type: in vivo, mouse (male ddY); conditions: reserpine 2 mg/kg s.c.; for inhibition at 3 mg/kg / inhibition at 10 mg/kg / inhibition at 30 mg/kg / inhibition at 100 mg/kg: Mus musculus, 1.5 h, scored after 90 minutes, read-out: Inhibition rate (antagonism against reserpine-induced ptosis)
Protocol: (§1) The procedure employed in the tests will be explained concretely below:
1. Effect on reserpine-induced ptosis in the mouse
Male ddY mice (4 weeks of age, body weight 22-27 g) were used, divided into the indicated groups each consisting of 3 or 6 animals. The test compounds were dissolved or suspended in an appropriate solvent (physiological saline, 0.5% CMC or 1% dimethylsulfoxide solution) and were orally administered immediately before treatment with reserpine.
The vials containing the test solutions were labeled with coded ciphers and the administration was carried out in randomized order.
The mice were then subcutaneously treated with reserpine at a dose of 2 mg/kg. After 90 minutes, the extent of ptosis was scored. Grading of the score was based on the shape of eye immediately after the mice were taken out from their cages;
0: round eye shape, as normal
The inhibition rate at each dose was calculated from the scores according to the following equation: [formula] The inhibition rate was then scored on the following basis: […]

[1] = test system: spontaneous locomotor activities in mice treated with L-DOPA; assay: Potentiating effect upon spontaneous locomotor activities in mice treated with L-DOPA; assay type: in vivo, mouse (male ddY); conditions: for Average locomotor activities (+/- S.E.): 1 hour, MK-486 20 mg/kg i.p. then L-DOPA i.p.
Protocol: as §1
2. Potentiating effect of compounds upon spontaneous locomotor activities in mice treated with L-DOPA
Male ddY mice (5 weeks old, body weight 30-33 g) were used, after divided into groups each consisting of 5 animals (experiment 1) or 15 animals (experiment 2). The test compounds were prepared as described in the anti-reserpine study, and given orally 20 minutes before administration of MK-486. In control animals, saline was similarly administered. In order to prevent decomposition of L-DOPA at the peripheral site, the mice were intraperitoneally given MK-486 (carbidopa) at a dose of 20 mg/kg and treated intraperitoneally 30 minutes later with L-DOPA. The mice were placed in a cage on a locomotor activity counter (AUTOMEX-11), one-by-one (experiment 1) or 3 mice a cage (experiment 2). Spontaneous locomotor activities were determined for an hour, and the average locomotor activity at each dose was calcultated from 5 counts. The spontaneous locomotor activity in animals treated with the compound was statistically analyzed versus the control group using Student's two-tailed t-test.

Acute toxicity, oral = assay type: in vivo; conditions: 300 mg/kg oral in 0.5% CMC, 5 mice, observed 5 days; Compound 36 as its hydrochloride
Protocol: Each of the Compounds 11, 36 (as its hydrochloride), 53, 76, and 87 dissolved in a 0.5% CMC solution was orally administered to 5 mice at a dose of 300 mg/kg. Observations were made for a period of 5 days.

[2] = test system: spontaneous locomotor activities in mice treated with L-5-HTP; assay: Potentiating effect upon spontaneous locomotor activities in mice treated with L-5-HTP; assay type: in vivo, mouse (male ddY); conditions: 3 mg/kg oral; MK-486 20 mg/kg i.p.; L-5-HTP 100 mg/kg i.p.; 15 mice; 1 hour; saline 2147(+/-334); P <0.01
Protocol: as §1
3. Potentiating effect of compounds upon spontaneous locomotor activities in mice treated with L-5-HTP
Male ddY mice (4 weeks old, body weight 22-25 g) were used, after divided into groups each consisting of 15 mice. Before administration of MK-486 (20 mg/kg, IP), either the test compound formulation or vehicle (control group) was orally administered. At 30 min after administration of […], L-5-HTP (100 mg/kg IP) was injected. Spontaneous locomotor activities were determined from 15 minutes after L-5-HTP. For this determination, 3 mice were placed in a locomotor counter (Automex) for an hour and the total count noted. Five such apparatuses were used for each dose, in order to eliminate different sensitivities of each apparatus. Thus, 15 mice were used in total for each dose. The average count and SE were calculated from the 5 determinations for each dose, and statistically analyzed versus control group using Student's two-tailed t-test.

[3] = apparently exerted; cited from earlier work

Structure (SMILES) | Score (antagonism against reserpine-induced ptosis) (reserpine-induced ptosis; 30 mg/kg oral) | inhibition at 30 mg/kg (reserpine-induced ptosis; 30 mg/kg oral) [%] | Survival (acute toxicity) (Acute toxicity, oral) | Symptoms (acute toxicity) (Acute toxicity, oral) | Score (antagonism against reserpine-induced ptosis) (reserpine-induced ptosis; 100 mg/kg oral) | inhibition at 100 mg/kg (reserpine-induced ptosis; 100 mg/kg oral) [%] | also measured
O=c1cc(-c2ccc(Cl)cc2)on1CC(O)CN1CCOCC1 (stereo not drawn) [Compound 11, 5-p-chlorophenyl-2-(2-hydroxy-3-morpholinopropyl)-4-isoxazolin-3-one] | + (71% or more) | 72 | all the mice survived | No particular symptoms were detected | – | – | Score (antagonism against reserpine-induced ptosis) (reserpine-induced ptosis; 3 mg/kg oral): ± (41% to 70%); Score (antagonism against reserpine-induced ptosis) (reserpine-induced ptosis; 10 mg/kg oral): ± (41% to 70%); inhibition at 3 mg/kg (reserpine-induced ptosis; 3 mg/kg oral): 50%; inhibition at 10 mg/kg (reserpine-induced ptosis; 10 mg/kg oral): 56%; Spontaneous locomotor activity with treatment of L-DOPA (in words) ([1]; 50 mg/kg): significantly increased; Average locomotor activities (+/- S.E.) ([1]; experiment 1: 50 mg/kg oral, 5 mice one-by-one, control 160(+/-128), P <0.05): 3355(+/-878)
O=c1cc(-c2ccc(Cl)cc2)on1C[C@@H](O)CN1CCOCC1 [Compound 22, (S)-5-(p-Chlorophenyl)-2-(2-hydroxy-3-morpholinopropyl)isoxazolin-3-one] | + (71% or more) | 100 | – | – | – | – | Average spontaneous locomotor activity (+/- SE) [2]: 3544(+/-318); Score (antagonism against reserpine-induced ptosis) (reserpine-induced ptosis; 3 mg/kg oral): ± (41% to 70%); Score (antagonism against reserpine-induced ptosis) (reserpine-induced ptosis; 10 mg/kg oral): ± (41% to 70%); inhibition at 3 mg/kg (reserpine-induced ptosis; 3 mg/kg oral): 56%; inhibition at 10 mg/kg (reserpine-induced ptosis; 10 mg/kg oral): 81%; Average locomotor activities (+/- S.E.) ([1]; experiment 2: 50 mg/kg oral, 15 mice, 3 mice a cage, control 666(+/-137), P <0.001): 6013(+/-629)
OC(COc1cc(-c2ccccc2)on1)CN1CCOCC1 (stereo not drawn) [Compound 36, 3-(2-Hydroxy-3-morpholinopropoxy)-5-phenylisoxazole] | – | – | all the mice survived | No particular symptoms were detected | + (71% or more) | 71 | –
OC(COc1noc(-c2ccccc2)c1Cl)CN1CCOCC1 (stereo not drawn) [Compound 53, 4-Chloro-3-(2-hydroxy-3-morpholino-propoxy)-5-phenylisoxazole] | ± (41% to 70%) | 55 | all the mice survived | No particular symptoms were detected | – | – | –
OC(COc1cc(-c2ccc(Cl)cc2)on1)CN1CCOCC1 (stereo not drawn) [Compound 76, 5-(p-Chlorophenyl)-3-(2-hydroxy-3-morpholinopropoxy)isoxazole] | – | – | all the mice survived | No particular symptoms were detected | + (71% or more) | 71 | –
NC(=O)OCC(O)Cn1oc2ccc(Cl)cc2c1=O (stereo not drawn) [Compound 87, 2-(3-Carbamoyloxy-2-hydroxypropyl)-5-chlorobenzoisoxazolin-3-one] | + (71% or more) | 75 | all the mice survived | No particular symptoms were detected | + (71% or more) | 100 | –
CN(C)CCCN1c2ccccc2CCc2ccccc21 [Imipramine.HCl, reference compound] | ± (41% to 70%) | 61 | – | – | – | – | –
CN(C)CCCN1c2ccccc2CCc2ccccc21 [imipramine, 10,11-dihydro-N,N-dimethyl-5H-dibenz[b,f]azepine-5-propanamine] | – | – | – | – | – | – | Anticholinergic activity of reference (in words) [3]: anticholinergic activity which is apparently exerted
